Data published in patent US11007274B2, “Compounds for medicinal applications” (Ausvir Therapeutics Pty LTD, priority 2015, dated 2021).
pEC50: −log10 of the molar value. Converted amounts (≈) assume the structure as drawn. “And” between values parts separate entries of the source, which are not always exact repeats. Equal values may be shown once. Read-outs that look alike come from different tables or passages of the source.

Columns and labels:
Perth/16/2009 = test: microbe, parasite or virus in culture; assay type: cell-based; settings: Table 7
CA/07/2009 = test: microbe, parasite or virus in culture; assay type: cell-based; settings: Table 7
Duck/MN/1525/81 = assay type: cell-based; settings: Table 7
Florida/4/2006 = test: microbe, parasite or virus in culture; assay type: cell-based; settings: Table 7
A/PR/8 virus H1N1 = test: Viral Plaque Reduction Assay (Table 23); assay type: cell-based, influenza virus; settings: Table 23, plaque reduction, read-out: EC50
A/Perth/261/2009 = test: microbe, parasite or virus in culture; assay type: cell-based; settings: unidentified influenza virus, read-out: EC50 A/Perth/261/2009
A/Mississippi/03/01H274Y = assay type: cell-based, influenza virus
A/Victoria/503/06 = test: microbe, parasite or virus in culture; assay type: cell-based; settings: unidentified influenza virus, read-out: EC50 A/Victoria/503/06
A/Victoria/170/2012 = test: microbe, parasite or virus in culture; assay type: cell-based; settings: unidentified influenza virus, read-out: EC50 A/Victoria/170/2012
B/Townsville/2/2011 = test: microbe, parasite or virus in culture; assay type: cell-based; settings: unidentified influenza virus, read-out: EC50 B/Townsville/2/2011
A/Sydney/5/97 = test: microbe, parasite or virus in culture; assay type: cell-based; settings: unidentified influenza virus, read-out: EC50 A/Sydney/5/97
A/Solomon Island/3/06 = test: microbe, parasite or virus in culture; assay type: cell-based; settings: unidentified influenza virus, read-out: EC50 A/Solomon Island/3/06
A/Townsville/74/2011 = test: microbe, parasite or virus in culture; assay type: cell-based; settings: unidentified influenza virus, read-out: EC50 A/Townsville/74/2011
[1] = system: Influenza A virus H5N1, Duck/MN/1525/81; test: microbe, parasite or virus in culture; assay type: cell-based
[2] = system: Influenza A virus H3N2, Perth/16/2009; test: microbe, parasite or virus in culture; assay type: cell-based; settings: read-out: EC90
[3] = system: Influenza B virus, B/Florida/4/2006; test: microbe, parasite or virus in culture; assay type: cell-based
[4] = system: Influenza A virus H1N1, California/07/2009; test: microbe, parasite or virus in culture; assay type: cell-based
[5] = system: Influenza A virus H3N2, Perth/16/2009; test: microbe, parasite or virus in culture; assay type: cell-based
[6] = system: Influenza A virus H1N1, California/07/2009; test: microbe, parasite or virus in culture; assay type: cell-based; settings: read-out: EC90
[7] = system: Influenza B virus, B/Florida/4/2006; test: microbe, parasite or virus in culture; assay type: cell-based; settings: Table 19, […], B/Florida/4/2006, read-out: EC50
CA/07/2009 virus H1N1 = test: Viral Plaque Reduction Assay (Table 22); assay type: cell-based; settings: Influenza A virus, Table 22, plaque reduction, read-out: EC50
PR8 influenza virus = test: Viral clearance rates in the lung and nasal turbinates, weight loss (Table 6); assay type: in vivo, mice

CC(=O)N[C@H]1[C@H]([C@H](OC(=O)NCCCCCNC(=O)[C@@H]2C[C@H](C(=O)NCCCCCNC(=O)O[C@@H]([C@@H]3OC(C(=O)O)=C[C@H](N=C(N)N)[C@H]3NC(C)=O)[C@H](O)CO)C[C@H](C(=O)N[C@@H](CC(=O)O)C(=O)O)C2)[C@H](O)CO)OC(C(=O)O)=C[C@@H]1N=C(N)N [MD242, CHTCA(Zp)2-L-Asp]
pEC50 (Perth/16/2009): 8.46
EC50 Perth/16/2009 (Perth/16/2009): 0.0042 µg/mL (≈ 0.00345 µM)
pEC50 (CA/07/2009): 8.18
EC50 CA/07/2009 (CA/07/2009; MDCK cell line): 0.008 µg/mL (≈ 0.00658 µM)
pEC50 (Duck/MN/1525/81): 9.15
pEC50 (Florida/4/2006): 9.24
EC50 Florida/4/2006 (Florida/4/2006): 0.00071 µg/mL (≈ 0.000584 µM)

CC(=O)N[C@H]1[C@H]([C@H](OC(=O)NCCCCCCCCNC(=O)CC(CC(=O)N[C@H](CS(=O)(=O)O)C(=O)N[C@H](CS(=O)(=O)O)C(=O)N[C@H](CS(=O)(=O)O)C(=O)O)C(=O)NCCCCCCCCNC(=O)O[C@@H]([C@@H]2OC(C(=O)O)=C[C@H](N=C(N)N)[C@H]2NC(C)=O)[C@H](O)CO)[C@H](O)CO)OC(C(=O)O)=C[C@@H]1N=C(N)N (stereo partly drawn) [MD343, PK2 TCA(Z0)2-[D-Cya]3-OH]
pEC50 (A/PR/8 virus H1N1): 8.90

CC(=O)N[C@H]1C([C@H](OC(=O)NCCCCCCCCCNC(=O)[C@@H]2CC(C(=O)NCCCCCCNC(=O)O[C@H](C(O)CO)C3OC(C(=O)O)=C[C@H](NC(=N)N)[C@H]3NC(C)=O)C[C@H](C(=O)N[C@H](CC(=O)NC(CS(=O)(=O)O)C(=O)O)C(=O)N[C@H](CC(=O)NC(CS(=O)(=O)O)C(=O)O)C(=O)N[C@H](CC(=O)NC(CS(=O)(=O)O)C(=O)O)C(=O)O)C2)C(O)CO)OC(C(=O)O)=C[C@@H]1NC(=N)N (stereo partly drawn) [MD348, CHTCA(Z0)2-[D-Asp(D-Cyst)-D-Asp(D-Cyst)-D-Asp(D-Cyst)]-OH]
pEC50 (A/Perth/261/2009): 9.46
pEC50 (A/Mississippi/03/01H274Y): 9.57
pEC50 (A/Victoria/503/06): 8.35
pEC50 (A/Victoria/170/2012): 9.08
pEC50 (B/Townsville/2/2011): 9.55
pEC50 (A/Sydney/5/97): 8.90
pEC50 (A/Solomon Island/3/06): 10.80
pEC50 (A/Townsville/74/2011): 10.22
pEC50 (A/PR/8 virus H1N1; Influenza A virus): 8.72

NC(=O)c1ncn([C@@H]2O[C@H](CO)[C@@H](O)[C@H]2O)n1 [Ribavirin, reference compound]
EC90 [1]: 2.3 µg/mL (≈ 9.42 µM)
EC90 [2]: 4.4 µg/mL (≈ 18 µM)
CC50 (in vitro; CC50, Table 9, line Neutral Red (Cytopathic effect/Toxicity)): > 1000 µg/mL
CC50 (in vitro; CC50, Table 10, line Neutral Red (Cytopathic effect/Toxicity)): > 1000 µg/mL
CC50 (in vitro; CC50, Table 11, line Neutral Red (Cytopathic effect/Toxicity)): > 320 µg/mL
CC50 (in vitro; CC50, Table 12, line Neutral Red (Cytopathic effect/Toxicity)): > 320 µg/mL
CC50 (in vitro; CC50, Table 13, line Neutral Red (Cytopathic effect/Toxicity)): > 320 µg/mL
CC50 (in vitro; CC50, Table 14, line Neutral Red (Cytopathic effect/Toxicity)): > 320 µg/mL
CC50 (in vitro; CC50, Table 15, line Neutral Red (Cytopathic effect/Toxicity)): > 320 µg/mL
CC50 (in vitro; CC50, Table 16, line Neutral Red (Cytopathic effect/Toxicity)): > 320 µg/mL
CC50 (in vitro; CC50, Table 18, line Neutral Red (Cytopathic effect/Toxicity)): > 320 µg/mL
CC50 (in vitro; CC50, Table 19, Neutral Red (Cytopathic effect/Toxicity) rows): > 320 µg/mL
EC50 [3]: 9.5 µg/mL (≈ 38.9 µM)
EC50 [4]: 2.5 µg/mL (≈ 10.2 µM)
EC50 [5]: 5 µg/mL (≈ 20.5 µM)
EC90 [6]: 2.3 µg/mL (≈ 9.42 µM)
EC50 [7]: 10 µg/mL (≈ 40.9 µM)

CC(=O)N[C@H]1[C@H]([C@H](O)[C@H](O)CO)OC(C(=O)O)=C[C@@H]1N=C(N)N [Zanamivir, reference compound]
pEC50 (A/Mississippi/03/01H274Y): < 7.18
EC50 (CA/07/2009 virus H1N1): 0.00197 µg/mL and 5.93 nM
pEC50 (A/PR/8 virus H1N1; Influenza A virus): 4.99
lung viral titre, Group mean titres (PR8 influenza virus; Day 1): 2.60 log10
lung viral titre, Group mean titres (PR8 influenza virus; Day 3): 4.28 log10
lung viral titre, Group mean titres (PR8 influenza virus; Day 5): 4.85 log10
lung viral titre, Group mean titres (PR8 influenza virus; Day 7): 4.72 log10
weight loss compared with PBS (PR8 influenza virus; days 3, 4 and 5, Bonferroni post-test p<0.001): significantly different from PBS
lung viral titre, Individual titres (PR8 influenza virus; mouse, in vivo): 4.44 log10 and 4.66 log10 and 4.97 log10 (2×) and 4.19 log10 and 3.16 log10 and 4.84 log10 and 3.00 log10 and 5.77 log10 and 5.66 log10
